Data taken from PubChem BioAssay (NCI).
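Each compound was tested at five concentrations against cells in 96-well plates for 48 hours. GI50 marks 50% less growth. TGI: concentration producing complete growth inhibition.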

Key:
Assay in all cases: NCI tumour cell line growth inhibition, 48 h
[1] = system: UO-31 renal
[2] = system: M14 melanoma
[3] = system: BT-549 breast
[4] = system: T-47D breast
[5] = system: MDA-MB-435
[6] = system: NCI/ADR-RES ovarian
[7] = system: SF-295 CNS
[8] = system: SK-MEL-2 melanoma
[9] = system: UACC-257 melanoma
[10] = system: K-562 leukemia

Structure (SMILES) | GI50 [1] | TGI [1] | GI50 [2] | TGI [2] | GI50 [3] | TGI [3] | GI50 [4] | TGI [4] | GI50 [5] | TGI [5] | GI50 [6] | TGI [6] | GI50 [7] | TGI [7] | GI50 [8] | TGI [8] | GI50 [9] | TGI [9] | GI50 [10] | TGI [10]
C[C@@]12CCC[C@@](C)(C(=O)O)C1CC[C@@]13CC(=O)[C@@](CO)(CCC12)C3 (stereo not given in full) | > 100 µM | > 100 µM | > 100 µM | > 100 µM | > 100 µM | > 100 µM | > 100 µM | > 100 µM | > 100 µM | > 100 µM | > 100 µM | > 100 µM | > 100 µM | > 100 µM | > 100 µM | > 100 µM | > 100 µM | > 100 µM | > 100 µM | > 100 µM
CC(C)[C@@H](CS(=O)(=O)C(C)C)N1C(=O)[C@@](C)(CC(=O)O)C[C@H](c2cccc(Cl)c2)[C@H]1c1ccc(Cl)cc1 | 0.303 µM | 7.14 µM | 14.1 µM | 59.6 µM | 12.9 µM | 40.3 µM | 7.91 µM | > 92 µM | 15.3 µM | 45.5 µM | 24.7 µM | > 100 µM | 9.09 µM | 33.2 µM | 17.6 µM | 42.1 µM | 0.381 µM | 6.82 µM | 18.3 µM | > 100 µM
Nc1c(O)c(S(=O)(=O)O)c(O)c2c1C(=O)c1ccccc1C2=O | 2.47 µM | 9.13 µM | 3.95 µM | > 100 µM | 2.78 µM | 8.94 µM | 2.36 µM | 7.37 µM | 3.33 µM | > 100 µM | 2.99 µM | 13.9 µM | 2.32 µM | 7.27 µM | 2.25 µM | 6.21 µM | 2.38 µM | 6.33 µM | 3.13 µM | 13.9 µM
CCOC(=O)c1cnc2c(cnn2CC)c1NN=C(C)C | 23.2 µM | > 100 µM | > 100 µM | > 100 µM | 46.5 µM | > 100 µM | 29 µM | > 100 µM | 78.2 µM | > 100 µM | 38 µM | > 100 µM | 27.6 µM | > 100 µM | 53.5 µM | > 100 µM | 30.4 µM | > 100 µM | 59.6 µM | > 100 µM
CC12CCC(O)CC1CCC1C2CCC2(C)C(C3=CC(=O)OC3)CCC12 (stereo not given) | > 100 µM | > 100 µM | > 100 µM | > 100 µM | 11.2 µM | > 95.3 µM | 22.3 µM | > 100 µM | > 100 µM | > 100 µM | 27 µM | > 100 µM | 10.7 µM | 27.4 µM | 7.49 µM | 29.8 µM | > 100 µM | > 100 µM | > 100 µM | > 100 µM
O=C1C(=O)c2c(nc3ncccn23)-c2ccccc21 | 0.187 µM | 0.405 µM | 0.182 µM | 0.343 µM | 0.154 µM | 0.291 µM | 0.264 µM | 1.02 µM | 0.114 µM | 0.254 µM | 0.301 µM | 0.962 µM | 0.173 µM | 0.316 µM | 0.243 µM | 0.532 µM | 0.175 µM | 0.339 µM | 0.219 µM | 2.75 µM
CCc1nc(N)nc(N)c1-c1ccc(Cl)c(N=NN(C)C)c1 | – | > 70.4 µM | – | 58.9 µM | – | > 94.8 µM | – | > 93 µM | – | > 92.1 µM | – | > 100 µM | – | > 100 µM | – | 62.1 µM | – | > 100 µM | – | > 65 µM
Oc1ccc(SCc2ccc(NCc3ccccc3)cc2)cc1 | – | 56.5 µM | – | 44.5 µM | – | > 100 µM | – | 56.6 µM | – | > 100 µM | – | > 100 µM | – | > 100 µM | – | 61.1 µM | – | > 100 µM | – | > 100 µM
Clc1ccc(-c2cn(-c3ccccc3)c(-c3ccccc3)n2)c(Cl)c1 | 10.2 µM | > 50 µM | 2.47 µM | > 15.1 µM | 3.42 µM | > 50 µM | 2.52 µM | > 50 µM | 1.69 µM | 10.1 µM | 3.51 µM | > 44.9 µM | 1.45 µM | 4.68 µM | > 50 µM | > 50 µM | > 22.8 µM | > 50 µM | > 24.6 µM | > 50 µM
CS(=O)(=O)CS(=O)CS(=O)CS(=O)CC(NC(=O)CCC(N)C(=O)O)C(=O)O (stereo not given) | – | > 100 µM | – | > 100 µM | – | > 100 µM | – | > 100 µM | – | > 100 µM | – | > 100 µM | – | > 100 µM | – | > 100 µM | – | > 100 µM | – | > 100 µM
CCCCc1nc2cc(/C=C/C(=O)NO)ccc2n1CCN(CC)CC | 0.25 µM | 4.92 µM | 0.358 µM | 5.32 µM | 1.98 µM | 38.2 µM | 0.136 µM | > 47.4 µM | 0.24 µM | 0.855 µM | 0.239 µM | 4.03 µM | 0.26 µM | 1.23 µM | 0.153 µM | 0.506 µM | 0.0759 µM | 0.58 µM | 0.282 µM | > 100 µM
NCC(=O)CCC(=O)O | > 100 µM | > 100 µM | > 100 µM | > 100 µM | > 100 µM | > 100 µM | > 100 µM | > 100 µM | > 100 µM | > 100 µM | > 100 µM | > 100 µM | > 100 µM | > 100 µM | > 100 µM | > 100 µM | > 100 µM | > 100 µM | > 100 µM | > 100 µM
Cc1ccc(-n2c(-c3ccc(Cl)cc3)cs/c2=N\NC(=O)COc2n[nH]c(=O)c3ccccc23)cc1 | > 100 µM | > 100 µM | > 100 µM | > 100 µM | > 100 µM | > 100 µM | > 100 µM | > 100 µM | > 100 µM | > 100 µM | > 100 µM | > 100 µM | 19.7 µM | > 100 µM | > 100 µM | > 100 µM | 80.2 µM | > 100 µM | > 100 µM | > 100 µM
